Measurements as given in US6559159B2, “Kappa opioid receptor ligands” (Research Triangle Institute, priority 2001, dated 2003).

Assays:
[1] = target: T1, delta opioid receptor (Homo sapiens, UniProt P41143); test: Radioligand competitive binding, [3H]DADLE; details: for Ki: delta, ± SD
[2] = target: T2, mu opioid receptor (Homo sapiens, UniProt P35372); test: Radioligand competitive binding, [3H]DAMGO; details: for Ki: radioligand binding, mu, ± SD
[3] = target: T3, kappa opioid receptor (Homo sapiens, UniProt P41145); test: Radioligand competitive binding, [3H]U69,593; details: for Ki: radioligand binding, kappa, ± SD; for delta/kappa selectivity ratio (binding) / mu/kappa selectivity ratio (binding): column head not printed in Table 1
[4] = target: T4, kappa opioid receptor (Cavia porcellus, UniProt P41144); test: Inhibition of U69,593-stimulated [35S]GTPγS binding in guinea pig caudate; type: biochemical; details: for Ki: 50% attenuation of U69,593 (10 μM)-stimulated [35S]GTP-γ-S binding, ± SD, read-out: Apparent Functional Ki U69,593; for δ/κ / μ/κ: ratio of apparent functional Ki
T4 construct: as measured in guinea pig caudate membranes; from tissue; host or cells: guinea pig caudate membranes

[5] = target: T5, delta opioid receptor (Cavia porcellus, UniProt A0A286XTF2); test: Inhibition of SNC-80-stimulated [35S]GTPγS binding in guinea pig caudate; type: biochemical; details: 50% attenuation of SNC80 (10 μM)-stimulated [35S]GTP-γ-S binding, ± SD, read-out: Apparent Functional Ki SNC-80
T5 construct: as measured in guinea pig caudate membranes; from tissue; host or cells: guinea pig caudate membranes

[6] = target: mu opioid receptor (Cavia porcellus, UniProt A0ACM8Q262); test: Inhibition of DAMGO-stimulated [35S]GTPγS binding in guinea pig caudate; type: biochemical; details: 50% attenuation of DAMGO (10 μM)-stimulated [35S]GTP-γ-S binding, ± SD, read-out: Apparent Functional Ki DAMGO
[7] = target: T3, kappa opioid receptor; test: Inhibition of U69,593-stimulated [35S]GTPγS binding in cloned human opioid receptors; type: biochemical; parameters: expressed in transfected cells
[8] = target: T2, mu opioid receptor; test: Inhibition of DAMGO-stimulated [35S]GTPγS binding in cloned human opioid receptors; type: biochemical; parameters: expressed in transfected cells; details: 50% attenuation of DAMGO (10 μM)-stimulated [35S]GTP-γ-S binding, ± SD, read-out: Apparent Functional Ki DAMGO
[9] = target: T1, delta opioid receptor; test: Inhibition of SNC-80-stimulated [35S]GTPγS binding in cloned human opioid receptors; type: biochemical; parameters: expressed in transfected cells; details: 50% attenuation of SNC80 (10 μM)-stimulated [35S]GTP-γ-S binding, ± SD, read-out: Apparent Functional Ki SNC-80
[10] = ratio of apparent functional Ki, cloned human receptors

Row | SMILES | Ki [1] | Ki [2] | Ki [3] | delta/kappa selectivity ratio (binding) ([3]; ratio of binding Ki) | mu/kappa selectivity ratio (binding) ([3]; ratio of binding Ki) | Ki [4] | δ/κ [4] | μ/κ [4] | Ki [5] | Ki [6] | Ki ([7]; cloned human opioid receptors, 50% attenuation of U69,593 (10 μM)-stimulated [35S]GTP-γ-S binding, ± SD, read-out: Apparent Functional Ki U69,593) | δ/κ [7, 10] | μ/κ [7, 10] | affinity for the delta receptor (in words) ([1]; within the testing parameters) | affinity for the mu receptor lower than compound 10 ([2]; binding Ki of 12 relative to 10) | delta/kappa selectivity profile (binding, text) ([3]; ratio of binding Ki) | Ki [8] | Ki [9]
1 | C[C@@H]1CN(CCCc2ccccc2)[C@H]2C[C@H](NC(=O)CCCN(C)C)C[C@]1(c1cccc(O)c1)C2 [Compound 13, 4-(dimethylamino)-N-[(1R,4S,5S,7R)-5-(3-hydroxyphenyl)-4-methyl-2-(3-phenylpropyl)-2-azabicyclo[3.3.1]non-7-yl]butanamide] | 1460 ± 113 nM | 57 ± 5.4 nM | 11.9 ± 0.65 nM | 122 | 5 |  |  |  |  |  |  |  |  |  |  |  |  | 
2 | CC1C2CCCC1(c1cccc(O)c1)CCN2CCc1ccccc1 (stereo not drawn) [Compound 10, N-phenethyl-9β-methyl-5-(3-hydroxyphenyl)morphan, reference compound] | 272 ± 30 nM | 3.11 nM | 14.5 ± 0.99 nM | 19 | 0.21 | 1.34 ± 0.084 nM | 9.4 | 0.25 | 12.6 ± 1.01 nM | 0.338 ± 0.028 nM |  |  |  |  |  |  |  | 
3 | Oc1ccc2c3c1O[C@H]1c4[nH]c5c(c4C[C@@]4(O)[C@@H](C2)N(CC2CC2)CC[C@]314)C[C@@]1(O)[C@H]2Cc3ccc(O)c4c3[C@@]1(CCN2CC1CC1)[C@H]5O4 [6, nor-BNI, norbinaltorphimine] |  |  |  |  |  |  |  |  | 86 ± 7.2 nM |  |  |  |  |  |  |  |  | 
4 | C[C@@H]1CN(CCCc2ccccc2)[C@H]2C[C@H](NC(=O)CCN3CCCCC3)C[C@]1(c1cccc(O)c1)C2 [Compound 12, (−)-N-[(1R,4S,5S, 7R)-5-(3-hydroxy)phenyl-4-methyl-2-(3-phenylpropyl)-2-azabicyclo[3.3.1]non-7-yl]-3-(1-piperidinyl)propanamide] | > 3400 nM | 147 nM | 4.3 nM | >790 | 34 | 0.48 ± 0.06 nM | >625 | 70 | > 300 nM | 33.6 ± 10.4 nM | 0.56 ± 0.08 nM | >178 | 64 | no affinity | ~50 fold | > 790 fold | 35.8 ± 6.8 nM | > 100 nM
